Data set [1] can be described thus: Fragrance Fidelity Index (FFI) assigned by perfumers/expert graders on fabric swatches. The arrangement: species or system human; key: FFI grade on reference scale anchored by 0, 1, 2, 3 swatches. The text has this:
(§1) Blocker materials suitable for use in consumer products of the present invention are chosen for their ability to decrease malodor, while not interfering with perception of a fragrance. Material selection is done by assigning two indices to a test sample material from two reference scales in order to rank odor strengths. The two reference scales are the Fragrance Fidelity Index (FFI) scale and the Blocker Index (BI) scale. The FFI ranks the ability of the test sample material to impart a perceivable odor which could cause interference when combined with another fragrance and the BI ranks the ability of the test sample material to reduce malodor perception. The two methods for assigning the indices to a test sample on the FFI and the BI reference scales are given below.
The first step in the method for assigning an FFI to the test samples on the FFI reference scale is to create the FFI reference swatches. […] Fabric swatches for this test are white knit polycotton (4 inch×4 inch) swatches from EMC ordered as PC 50/50. The supplier is instructed to strip the swatches first, stripping involves washing twice with a fragrance-free detergent and rinsing three times.
Pipette 13 μL of each of the three solutions into the middle of a clean swatch resulting in about a 1 cm diameter of the solution in the middle of the swatch. This will create a sensory scale of three swatches with three different odor levels based on the concentration of the solution pipetted onto the swatch. After drying for 30 minutes in a vented hood, the swatches are wrapped in aluminum foil to prevent odor contamination to the treated swatch. A clean untreated swatch is also included as the lowest anchor point of reference for odor strength on the FFI scale. The FFI reference scale swatches should be used within 0.5 to 12 hours and discarded after 12 hours. The swatches are used as scale anchor points when graders evaluate a test sample(s) and are assigned a Fragrance Fidelity Index (FFI) as show in Table 7.
The perfumer/expert panel is asked to rank order swatches according to a scale between 0 and 3.
The reference swatches represent the 0, 1, 2, and 3 FFIs on the FFI reference scale, Table 9. The expert grader should familiarize them self with the strength of the odor on the FFI reference swatches by sniffing each one starting at 0 (the lowest odor strength) and ending at 3 (the highest odor strength). This should be done prior to evaluating the test sample material treated swatch.
A clean swatch is treated with 13 μL of a known concentration of a test sample material resulting in an about 1 cm of the solution on the clean swatch. Just like the reference swatches, the test sample material swatch is dried in a vented hood for 30 minutes and then wrapped in aluminum foil to prevent contamination. The test material swatches and the FFI reference swatches should be made within 2 hours of each other. The test material swatch must be used within 0.5 to 12 hours and discarded after 12 hours.
At least two perfumers/expert graders are used to assign an FFI grade to a test sample. The perfumer/expert grader smells the test sample swatch by holding that swatch 1 inch from their nose with their nose centered over the area where the test sample was pipetted on to the fabric and then assigns the test sample an FFI grade using the FFI reference scale anchor swatches as references. In cases where the test sample material is graded greater than 3, the test material is not a blocker material or the concentration of the material needs to be lowered and reevaluated to determine if a lower level has a malodor blocker functionality.

Data set [2] in a line: Blocker Index (BI) assigned by perfumers/expert graders on isovaleric acid swatches. The arrangement: species or system human; key: BI odor strength 0 (lowest, clean swatch) to 3 (highest).
Text: as §1
The first step in the method for assigning a BI to a test sample material on the BI reference scale is to create the BI reference swatches. […] Fabric swatches for this test are white knit polycotton (4 inch×4 inch) swatches from EMC ordered as PC 50/50. The supplier is instructed to strip the swatches first, stripping involves washing twice with a fragrance-free detergent and rinsing three times.
The BI scale contains one clean swatch with no malodor applied. […] These solutions are pipetted to the middle of the swatches. […] After drying for 30 minutes in a vented hood, the swatches are wrapped in aluminum foil to prevent odor contamination to the treated swatch. A clean untreated swatch is also included as the lowest anchor point of reference for malodor strength on the BI scale. The BI reference scale swatches should be used within 0.5 to 12 hours and discarded after 12 hours. The swatches are used as scale anchor points when graders evaluate a test sample(s) and are assigned a Blocker Index (BI) as show in Table 12.
The perfumer/expert grader is asked to rank order swatches according to a scale between 0 and 3.
The reference swatches represent the 0, 1, 2, and 3 BIs on the BI reference scale, Table 12. The expert grader should familiarizes him/herself with the strength of the odor on the BI reference swatches by sniffing each one starting at 0 (the lowest odor strength) and ending at 3 (the highest odor strength). This should be done prior to evaluating the swatch treated with the test material.
To evaluate the BI, the test material is applied to a malodorous swatch to determine how well the test material blocks the malodor. […] After drying the malodorous swatch a known concentration of test material solution, between 1 ppm and 100 ppm is pipetted onto the malodorous swatch. […] It is sometimes necessary to evaluate several levels of the test material between about 1 and about 100 ppm to determine the BI.
At least two perfumers/expert graders are used to assign the BI to the test sample. […] The test sample swatch is assigned a BI at or between numbers on the BI in table.

The nature of data set [3]: Liquid dish neat product liquid-air partition coefficient. The data set is classed as physicochemical.
A short description of data set [4]: Probability of Ingredient Color Instability. The data set is classed as physicochemical.
Where [5] appears, read: Conc 10 ppm test material on swatch.
Where [6] appears, read: Conc 50 ppm test material on swatch.
Where [7] appears, read: Conc 10 ppm test material on isovaleric acid swatch.
[8] abbreviates: Conc 50 ppm test material on isovaleric acid swatch.
[9] abbreviates: class code letter within Comment Code.

Each structure is given as a SMILES string. “And” between values parts separate entries of the source, which are not always exact repeats. Equal entries are not always repeated. Where two headings read alike, the source gives them in different places.

`CC(=O)OCCCCCCC(C)C` [Material 204]: the FFI in data set [1] (setting [5]) and in data set [1] (setting [6]) was 0 throughout. Also, the results for the BI in data set [2] (setting [7]) and in data set [2] (setting [8]) were 2.0 and 2.7, respectively.

For `COC(=O)OC1CC/C=C\CCC1` (stereo not shown) [Material 1139], the FFI in data set [1] (setting [5]) is listed as 0; in data set [1] (setting [6]), 1.0. The BI in data set [2] (setting [7]) was 2.0; in data set [2] (setting [8]), 2.7.

Regarding `CC(C)(C)C1CCCCC1` [4-tert-butyl cyclohexane], the FFI in data set [1] (setting [5]) is 0; in data set [1] (setting [6]), 0.3. For the same compound, the BI in data set [2] (setting [7]) and in data set [2] (setting [8]) was 2.0 throughout.

On to `CCCCCCCCCCCCCCCC(=O)OC` [Material 109], for which the “Log of liquid dish neat product liquid-air partition coefficient (Comment Code K/L)” value (“Log … (Comment Code K/L)” below) in data set [3] (setting [9]) is given as “K (Log of liquid dish neat product liquid-air partition coefficient greater than or equal to −7)”. Also, the BI in data set [2] (setting [7]) was found to be 2.0.

With `CC(=O)OC1CC2CC1C1CC=CC21` (stereo not shown) [Material 281], the “Log … (Comment Code K/L)” value in data set [3] (setting [9]) is “K (Log of liquid dish neat product liquid-air partition coefficient greater than or equal to −7)”. Besides, the “Comment Code: Log of liquid dish neat product liquid-air partition coefficient” value (from here on “Comment Code: Log”) in data set [3] (code letters K, L) is “K (Log of liquid dish neat product liquid-air partition coefficient greater than or equal to −7)”. The FFI in data set [1] (setting [5]) amounted to 0; in data set [1] (setting [6]), 0.5. For the same compound, the BI in data set [2] (setting [7]) and in data set [2] (setting [8]) was 2.0 each time.

As for `O=C1CCC2CCCCC2O1` (stereo not shown) [3,4,4a,5,6,7,8,8a-octahydrochromen-2-one], the FFI in data set [1] (setting [5]) and in data set [1] (setting [6]) was 0 each time. For the same compound, the BI in data set [2] (setting [7]) and in data set [2] (setting [8]) was 2.0 each time.

For `CCCCCCCCCCCC(=O)OCC` [Material 391], the “Log … (Comment Code K/L)” value in data set [3] (setting [9]) is “K (Log of liquid dish neat product liquid-air partition coefficient greater than or equal to −7)”. For the same compound, in data set [1] (setting [6]), the FFI was determined as 0.3. The BI in data set [2] (setting [8]) is recorded as 2.2.

Turning to `CC(CCO)CCc1ccccc1` (stereo not shown) [Material 962], the FFI is recorded as 0 in data set [1] (setting [5]) and 0.5 in data set [1] (setting [6]). For the same compound, the BI in data set [2] (setting [7]) turned out to be 2.3; in data set [2] (setting [8]) it was 1.7.

Compound `CCCCCCCCCCCCO` [Material 174] yielded an FFI in data set [1] (setting [6]) of 0.5. In data set [2] (setting [8]), this compound yielded a BI of 2.3.

In turn, `CCCCCCCCCCCO` [Undecanol] registered an FFI in data set [1] (setting [6]) of 0.8. This compound showed a BI in data set [2] (setting [8]) of 2.3.

For `CC1(C)CCc2ccc(CCC=O)cc21` [Material 261], the “Log … (Comment Code K/L)” value in data set [3] (setting [9]) is given as “K (Log of liquid dish neat product liquid-air partition coefficient greater than or equal to −7)”. In addition, the “Comment Code: Log” value in data set [3] (code letters K, L) is reported as “K (Log of liquid dish neat product liquid-air partition coefficient greater than or equal to −7)”. Moreover, the FFI is given as 0 in data set [1] (setting [5]) and 1.3 in data set [1] (setting [6]). For the same compound, the BI in data set [2] (setting [7]) is given as 1.8; in data set [2] (setting [8]) it was 1.3.

For `CC1(C)C2CCC3(C2)C1C(=O)CCC3(C)C` (stereo not shown) [Material 1149], the “Comment Code: Log” value is reported as “K (Log of liquid dish neat product liquid-air partition coefficient greater than or equal to −7)” in data set [3] (code letters K, L) and “K (Log of liquid dish neat product liquid-air partition coefficient greater than or equal to −7)” in data set [3] (codes K/L of the Comment Code, Table 1). The FFI turned out to be 0 in data set [1] (setting [5]) and 0.8 in data set [1] (setting [6]). Moreover, the BI is 1.5 in data set [2] (setting [7]) and 2.3 in data set [2] (setting [8]).

`CC(C)CC(=O)O` [isovaleric acid, reference compound]: the “BI grade of reference swatch, Ave” value in data set [2] (2 μL 0.08%, all graders (Table 10)) is given as 1.0. Further, the “BI grade of reference swatch, individual Expert Grader” value in data set [2] (stripped swatch with 2 μL 0.08%) is 0.5 and 1.0; in data set [2] (stripped swatch with 5 μL 0.08%), 2.5; in data set [2] (stripped swatch with 20 μL 0.08%) it was 2.5.

For `CCOC(=O)OC1C(C)CCC(C)C1C` (stereo not shown) [Material 1005], the FFI in data set [1] (setting [6]) worked out at 0.5. In addition, the BI in data set [2] (setting [8]) is on record as 2.6.

On to `C=CC(C)=CCC=C(C)C` [Material 524], for which the FFI in data set [1] (setting [6]) was determined as 0. In data set [2] (setting [8]), this compound gave a BI of 2.8.

With `CC1=C2CC(C(C)(C)O)CCC2(C)CCC1` (stereo not shown) [Material 872], in data set [4], the “Probability of Ingredient Color Instability (Comment Code E/F)” value (from here on “Probability”) is “F (Probability of Ingredient Color Instability<71%)”. Besides, in data set [3], the “Log … (Comment Code K/L)” value is “K (Log of liquid dish neat product liquid-air partition coefficient greater than or equal to −7)”. In data set [3] (code letters K, L), the “Comment Code: Log” value is listed as “K (Log of liquid dish neat product liquid-air partition coefficient greater than or equal to −7)”.

With `C=CC(C)CC/C=C(\C)CCC=O` (stereo not shown) [Material 358], the “Probability” value in data set [4] (setting [9]) is “F (Probability of Ingredient Color Instability<71%)”. Further, in data set [3] (setting [9]), the “Log … (Comment Code K/L)” value is listed as “K (Log of liquid dish neat product liquid-air partition coefficient greater than or equal to −7)”.

Turning to `CC1=CCCC2(C)OC2CCC(C)=CCC1` (racemic) [Material 568], the “Probability” value in data set [4] is reported as “F (Probability of Ingredient Color Instability<71%)”. Also, the “Log … (Comment Code K/L)” value in data set [3] is reported as “K (Log of liquid dish neat product liquid-air partition coefficient greater than or equal to −7)”.

`CC1=CCC(C(C)CC=O)CC1` (stereo not shown) [Material 159]: the “Probability” value in data set [4] (setting [9]) is on record as “F (Probability of Ingredient Color Instability<71%)”. Further, the “Log … (Comment Code K/L)” value in data set [3] (setting [9]) is “K (Log of liquid dish neat product liquid-air partition coefficient greater than or equal to −7)”.

Take `CC(CC=O)CCc1ccccc1` (stereo not shown) [Material 807]: the “Probability” value in data set [4] is given as “F (Probability of Ingredient Color Instability<71%)”. The “Log … (Comment Code K/L)” value in data set [3] is listed as “K (Log of liquid dish neat product liquid-air partition coefficient greater than or equal to −7)”.

In the case of `CCCCCC1C(=O)CCC1CC(=O)OC` (stereo not shown) [Material 1083], the “Probability” value in data set [4] was “F (Probability of Ingredient Color Instability<71%)”. The “Log … (Comment Code K/L)” value in data set [3] was “K (Log of liquid dish neat product liquid-air partition coefficient greater than or equal to −7)”.

Consider `CCCCCCCCCCCC=O` [Material 178], for which the “Probability” value in data set [4] (setting [9]) was “F (Probability of Ingredient Color Instability<71%)”. Also, in data set [3] (setting [9]), the “Log … (Comment Code K/L)” value was “K (Log of liquid dish neat product liquid-air partition coefficient greater than or equal to −7)”.

For the origin of these results see US20160090556A1, “PRODUCTS COMPRISING MALODOR REDUCTION MATERIALS” (The Procter & Gamble Company, priority 2014, published 2016).
